From ChEMBL document CHEMBL5357078, “Synthesis and Structural Optimization of ATG4B Inhibitors for the Attenuation of Autophagy in Glioblastoma” (ACS Med Chem Lett, 2024)
Active and inactive are the calls of the source.

Assays:
Type in all cases: functional, cell-based
GSC83 [1] = assay: Induction of autophagy in human GSC83 cells assessed as inhibition of sphere formation upto 100 uM incubated for 7 days; conditions: time 7.0 day
GSC576 [2] = assay: Induction of autophagy in human GSC576 cells assessed as inhibition of sphere formation upto 100 uM incubated for 7 days; conditions: time 7.0 day
GSC576 [3] = assay: Induction of autophagy in human GSC576 cells assessed as inhibition of ATG4B-induced LC3-1 to LC3-2 conversion incubated for 72 hrs by immunoblotting analysis
GSC83 [4] = assay: Induction of autophagy in human GSC83 cells assessed as degradation of p62/SQSTM1 substrate incubated for 72 hrs by immunoblotting analysis
GSC83 [5] = assay: Induction of autophagy in human GSC83 cells assessed as inhibition of ATG4B-induced LC3-1 to LC3-2 conversion incubated for 72 hrs by immunoblotting analysis
GSC576 [6] = assay: Induction of autophagy in human GSC576 cells assessed as degradation of p62/SQSTM1 substrate incubated for 72 hrs by immunoblotting analysis
GSC83 [7] = assay: Antiproliferative activity against human GSC83 cells assessed as reduction in cell viability upto 100 uM incubated for 72 hrs by celltiter glo luminescent assay
GSC83 [8] = assay: Induction of autophagy in human GSC83 cells assessed as inhibition of sphere formation upto 10 uM incubated for 7 days; conditions: time 7.0 day
GSC576 [9] = assay: Antiproliferative activity against human GSC576 cells assessed as reduction in cell viability upto 100 uM incubated for 72 hrs by celltiter glo luminescent assay
GSC576 [10] = assay: Induction of autophagy in human GSC576 cells assessed as inhibition of sphere formation upto 10 uM incubated for 7 days; conditions: time 7.0 day

Measured: Activity

S=C(Nc1ccccn1)c1ccccn1
active: GSC83 [1] | GSC576 [2] | GSC576 [3] | GSC83 [4] | GSC83 [5] | GSC576 [6]

S=C(Nc1ccccn1)c1ccc2ccccc2n1
active: GSC83 [7] | GSC576 [3] | GSC83 [8] | GSC83 [4] | GSC576 [9] | GSC83 [5] | GSC576 [6] | GSC576 [10]
